Data on three compounds can be found in patent US9163077B2, “RhoC-based immunotherapy” (RHOVAC APS, priority 2007, dated 2015).

No end group written: not given here.

One test addresses HLA-A3 (Homo sapiens, UniProt P04439). The test is described as follows: Assembly assay for peptide binding to MHC class I molecules. To be noted: HLA-A3, lysate of T2-A3 cells, FIG. 2; read-out: peptide concentration required for half maximal recovery of class I MHC molecules (C50 value). The method, then:
The binding affinity of the synthetic peptides (Genscript, Scotch Plains, US) to HLA-A3 molecules was measured by means of the assembly assay as described (13). The assay is based on the stabilization of the class I molecule after loading of different concentrations of peptide to the TAP-deficient cell line T2-A3. Briefly, T2-A3 cells were incubated in methionine-free RPMI 1640 (Gibco BRL, Paisley, UK) with 10% dialysed FCS. Subsequently, cells were metabolically labelled with 50 μCi ^35S-methionine (Amersham, Birkeroed, Denmark). […] Cell nuclei were removed by ultracentrifugation. The supernatant of T2-A3 cells was heated for 5 min at 45° C. in order to reduce background signals by preferentially destabilizing empty HLA-A3. The samples were precleared by addition of Pansorbin (Calbiochem, Darmstadt, Germany) and left on rotation overnight. Stably folded HLA molecules were immune-precipitated using the HLA class I-specific, conformation-dependent mAb W6/32. A-Sepharose beads were added to collect the folded MHC complexes and separated by isoelectric focusing gel electropheresis. MHC heavy chains were quantified using the ImageGauge Phosphorimager program (FUJI Photo Film). The intensity of the band is directly related to the amount of peptide-bound class I MHC complex recovered during the assay. Subsequently, the extent of stabilization of HLA-A3 is directly related to the binding affinity of the added peptide. The C50-value was calculated for each peptide as the peptide concentration sufficient for half maximal stabilization.

Another test relates to T2-A3 cells. As to the kind of experiment: 51Cr-release cytotoxicity assay, peptide-pulsed T2-A3 target cells. It is filed as cell-based, human. To be noted: for lysis of peptide-pulsed T2-A3 cells by CTL clone 9: FIG. 4b; for lysis of peptide-pulsed T2-A3 cells by Rho1L2-stimulated CTL bulk cultures: bulk culture from MM patient after four restimulations, FIG. 4a, unpulsed cells not lysed. As for the experimental part: (§1) PBL from a melanoma (MM) patient were stimulated with irradiated (20 Gy) autologous Rho1L2-loaded DC (PBL:DC ratio=3×10^6:3×10^5). The following day 120 U/ml IL-2 (PeproTech, London, UK) was added. Stimulation of the cultures were carried out every 10 days with Rho1L2-loaded irradiated autologous DC (2×) followed by Rho1L2-loaded irradiated autologous PBL (3×). Hundred and twenty U/ml IL-2 (PeproTech, London, UK) was added after each stimulation. After one month growing cultures were tested for specificity for Rho1L2.
(§2) PBL from a specific culture were cloned by limiting dilution in the presence of cloning mix containing 10^6/ml irradiated (20 Gy) lymphocytes from three healthy donors in X-vivo with 5% heat-inactivated human serum, 25 mM HEPES buffer (GibcoBRL, Paisley, UK), and 120 U/ml IL-2 (PeproTech, London, UK). The plates were incubated at 37° C./5% CO2. Every 3-4 days 50 μl fresh media were added containing IL-2 to a final concentration of 120 U/ml. Growing clones were expanded using cloning mix cells (5×10^4 cells/well) and IL-2. After expansion the clones were tested for specificity and cytotoxic potential in a standard ^51Cr-release assay.
Conventional ^51Cr-release assays for CTL-mediated cytotoxicity were carried out as described elsewhere (Andersen et al., (1999) J Immunol 163:3812-3818). Target cells were T2-A3 cells, the HLA-A3^+ breast cancer cell line BT-20, the HLA-A3^+ colon cancer cell line HT-29, the HLA-A3^+ head and neck cancer cell line CRL-2095 (all available at the American Type Culture Collection (ATCC)), the HLA-A3^+ melanoma cell line FM9, the HLA-A3^− melanoma cell line FM82, and the HLA-A3^+ melanoma cell line FM3 (Kirkin et al., (1995) Cancer Immunol Immunother 41: 71-81), with or without added HLA specific mAb W6/32 (Barnstable et al., (1978) Cell 14: 9-20) (2 μg/100 μl) (Schmidt et al., (2003) Blood 102: 571-576) or the HLA-A3 specific antibody GAPA3 (Sire et al., (1988) 140: 2422-2430).

The subject of test [1] is peptide epitope-specific INF-γ releasing effector cells. As to the kind of experiment: IFN-γ ELISPOT assay on in vitro stimulated PBL/PBMC. In kind it is cell-based, human. To be noted: for specific T-cell responses among PBMC: HLA-A3+ healthy controls (HD); for specific T-cell responses among PBL: HLA-A3+ renal cell carcinoma (RCC) patients. As for the experimental part:
Peripheral blood lymphocytes (PBL) from HLA-A3^+ cancer patients or peripheral blood mononuclear cells (PBMC) from healthy controls were obtained from the University Hospital Herlev, Denmark. Cells were cryopreserved in FCS with 10% DMSO. Tissue typing was conducted at the Department of Clinical Immunology, The State Hospital, Copenhagen, Denmark. Informed consent was obtained from the patients before any of these measures.
To extend the sensitivity of the ELISPOT assay, PBL were stimulated once before analysis. At day 0, PBL were thawed and plated in 24-well plates (Nunc, Roskilde, Denmark) in X-Vivo medium (Cambrex Bio Science Copenhagen, Vallensbaek Strand, Denmark) with 5% heat-inactivated human serum in the presence of 10 μM peptide (GenScript, Scotch Plains, US). The following day 20 U/ml IL-2 (PeproTech, London, UK) was added to the cultures. The cultured cells were tested for reactivity in the ELISPOT on day 8.
The ELISPOT assay was used to quantify peptide epitope-specific INF-γ releasing effector cells as described previously (WO 2005/049073, Example 1.2). Briefly, nitrocellulose bottomed 96-well plates (MultiScreen MAIP N45, Millipore, Hedehusene, Denmark) were coated with anti-IFN-γ antibody (1-D1K, Mabtech, Nacka, Sweden). The wells were washed, blocked with X-vivo medium before adding 10^4 stimulator T2-A3 cells (with or without 10 μM peptide; Rho1L2: RLGLQVRKNK; Rho1: RAGLQVRKNK (GenScript, Scotch Plains, US)) and effector cells at different concentrations. The plates were incubated overnight. The following day, medium was discarded and the wells were washed prior to addition of biotinylated secondary antibody (7-B6-1-Biotin, Mabtech, Nacka, Sweden). The plates were incubated for 2 hrs, washed and Avidin-enzyme conjugate (AP-Avidin, Calbiochem, Life Technologies, Inc., Roskilde, Denmark) was added to each well. Plates were incubated at RT for 1 hr before the enzyme substrate NBT/BCIP (Gibco Life Technology, Taastrup, Denmark) was added to each well and incubated at RT for 5-10 min. The reaction was terminated with tap-water upon the emergency of dark purple spots. The spots were counted using the ImmunoSpot® Series 2.0 Analyzer (CTL Analyzers, LLC, Cleveland, US) and the peptide specific CTL frequency could be calculated from the numbers of spot-forming cells. The number of antigen-specific spots was calculated by subtracting the mean number of spots of the control wells from the mean number of spots in the positive wells; responses with a p-value<0.05 (Student t-test for unpaired samples) were considered as positive. The definition is in respect with the CIMT Monitoring Panel inter-laboratory testing project (www.c-imt.org).

The subject of test [2] is HLA-A3+ melanoma cell line FM3. The test is described as follows: 51Cr-release cytotoxicity assay, FM3 target cells. In kind it is cell-based, human. As to conditions: unlabeled T2-A3 cells pulsed with peptide, inhibitor to target ratio 20:1, FIG. 5b. The method, then:
as §1, §2
Conventional ^51Cr-release assays for CTL-mediated cytotoxicity were carried out as described elsewhere (Andersen et al., (1999) J Immunol 163:3812-3818). […]

Chain of HLA-A3 (P04439 25-365): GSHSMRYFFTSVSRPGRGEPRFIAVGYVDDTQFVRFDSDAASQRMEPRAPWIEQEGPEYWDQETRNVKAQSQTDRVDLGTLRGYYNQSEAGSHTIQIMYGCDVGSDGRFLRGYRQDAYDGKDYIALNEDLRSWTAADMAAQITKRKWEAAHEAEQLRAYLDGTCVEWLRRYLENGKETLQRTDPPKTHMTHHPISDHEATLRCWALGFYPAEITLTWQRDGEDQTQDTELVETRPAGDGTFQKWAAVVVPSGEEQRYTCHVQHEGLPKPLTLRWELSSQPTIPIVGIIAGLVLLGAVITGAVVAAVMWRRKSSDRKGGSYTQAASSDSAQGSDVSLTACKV
Chain of HLA-A3 (P61769 21-119 partner): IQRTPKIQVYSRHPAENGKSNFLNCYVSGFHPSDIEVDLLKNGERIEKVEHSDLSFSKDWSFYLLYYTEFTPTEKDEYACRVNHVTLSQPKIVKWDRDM

In the case of `CC[C@H](C)[C@H](N)C(=O)N[C@@H](CC(C)C)C(=O)N[C@@H](CCCNC(=N)N)C(=O)NCC(=O)N[C@@H](CO)C(=O)N[C@H](C(=O)N[C@@H](C)C(=O)N[C@@H](Cc1c[nH]cn1)C(=O)N[C@@H](CCCCN)C(=O)O)C(C)C` [Influenza NP265-273, ILRGSVAHK, reference compound], on HLA-A3, the EC50 was determined as 0.3 µM.

Take RAGLQVRKNK [Rho1, RAGLQVRKNK]: the EC50 at HLA-A3 was above 40 µM. In the test with T2-A3 cells, the “lysis of peptide-pulsed T2-A3 cells by CTL clone 9” value is given as “effectively lysed” and the “lysis of peptide-pulsed T2-A3 cells by Rho1L2-stimulated CTL bulk cultures” value is listed as “efficiently”. In addition, in test [1], the “specific T-cell responses among PBMC” value is on record as “No responses were detected” and the “specific T-cell responses among PBL” value is listed as “No responses were detected”.

For RLGLQVRKNK [Rho1L2, RLGLQVRKNK], at HLA-A3, the EC50 came to 4 µM. In the test on T2-A3 cells, the “lysis of peptide-pulsed T2-A3 cells by CTL clone 9” value is listed as “effectively lysed” and the “lysis of peptide-pulsed T2-A3 cells by Rho1L2-stimulated CTL bulk cultures” value is listed as “efficiently”. Further, the “cold target inhibition of clone 9 killing of FM3 cells” value in test [2] is “completely abrogated”. In test [1], the “specific T-cell responses among PBMC” value is “No responses were detected” and the “specific T-cell responses among PBL” value is recorded as “No responses were detected”. The “patients with specific T-cell responses among PBL” value in test [1] (HLA-A3+ melanoma (MM) patients, PBL stimulated once in vitro, FIG. 3) is given as 3 out of 10.
